#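 Protocol summary: plate cells (96-well), add compound at 5 concentrations, incubate 48 h, interpolate endpoints linearly. TGI marks complete inhibition of growth.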
# How the values were obtained:
# Test in all cases: NCI-60 cell line screen, 48 h
# [1] = tested on: EKVX NSCLC
# [2] = tested on: SF-295 CNS
# [3] = tested on: SNB-19 CNS
# [4] = tested on: K-562 leukemia
# [5] = tested on: SN12C renal
# [6] = tested on: HL-60(TB) leukemia
# [7] = tested on: NCI-H522 lung
# [8] = tested on: KM12 colon
# [9] = tested on: SK-MEL-28 melanoma
# [10] = tested on: SF-268 CNS
# [11] = tested on: UACC-257 melanoma
# [12] = tested on: MOLT-4 leukemia
# [13] = tested on: SK-MEL-2 melanoma
# [14] = tested on: BT-549 breast
# [15] = tested on: RXF 393 renal
# [16] = tested on: NCI-H460 lung
# [17] = tested on: SNB-75 CNS
# [18] = tested on: CAKI-1 renal
# [19] = tested on: HT29 colon
# [20] = tested on: TK-10 renal
# [21] = tested on: T-47D breast
# [22] = tested on: OVCAR-3 ovarian
# [23] = tested on: OVCAR-5 ovarian
# [24] = tested on: MDA-MB-435
# [25] = tested on: HCT-116 colon
# [26] = tested on: NCI/ADR-RES ovarian
# [27] = tested on: M14 melanoma
# [28] = tested on: U251 CNS
# [29] = tested on: A498 renal
# [30] = tested on: SR leukemia
# [31] = tested on: A549 NSCLC
# [32] = tested on: NCI-H226 lung
# [33] = tested on: SK-MEL-5 melanoma
# [34] = tested on: OVCAR-4 ovarian
# [35] = tested on: MDA-N
# [36] = tested on: HOP-62 NSCLC
# [37] = tested on: SW-620 colon
# [38] = tested on: IGROV1 ovarian
# [39] = tested on: CCRF-CEM leukemia
# [40] = tested on: HOP-92 NSCLC
# [41] = tested on: 786-0 renal
# [42] = tested on: HS 578T breast
# [43] = tested on: MDA-MB-231 breast
# [44] = tested on: ACHN renal
# [45] = tested on: OVCAR-8 ovarian
# [46] = tested on: COLO 205 colon
# [47] = tested on: NCI-H23 lung
# [48] = tested on: SF-539 CNS
# [49] = tested on: LOX IMVI melanoma
# [50] = tested on: MALME-3M melanoma
# [51] = tested on: SK-OV-3 ovarian
# [52] = tested on: HCT-15 colon
# [53] = tested on: RPMI-8226 leukemia
# [54] = tested on: UO-31 renal
# [55] = tested on: PC-3 prostate
# [56] = tested on: DU-145 prostate
# [57] = tested on: UACC-62 melanoma
# [58] = tested on: HCC-2998 colon
compound,measurement,setting,value
CN1C2CCC1CC(CC(=O)NC(c1ccc(F)cc1)c1ccc(F)cc1)C2 (configuration not stated),TGI,[1],> 100 µM
same,TGI,[2],> 100 µM
same,TGI,[3],> 100 µM
same,TGI,[4],> 100 µM
same,TGI,[5],> 100 µM
same,TGI,[6],6.66 µM
same,TGI,[7],> 100000 nM
same,TGI,[8],> 100 µM
same,TGI,[9],55.1 µM
same,TGI,[10],> 100 µM
same,TGI,[11],39.4 µM
same,TGI,[12],> 100 µM
same,TGI,[13],49 µM
same,TGI,[14],> 100 µM
same,TGI,[15],> 100 µM
same,TGI,[16],> 100000 nM
same,TGI,[17],> 100 µM
same,TGI,[18],> 100 µM
same,TGI,[19],> 100000 nM
same,TGI,[20],> 100 µM
same,TGI,[21],> 100 µM
same,TGI,[22],> 100000 nM
same,TGI,[23],> 100 µM
same,TGI,[24],> 100 µM
same,TGI,[25],> 100000 nM
same,TGI,[26],> 100 µM
same,TGI,[27],33.7 µM
same,TGI,[28],> 100 µM
same,TGI,[29],> 100000 nM
same,TGI,[30],89.5 µM
same,TGI,[31],> 100 µM
same,TGI,[32],> 100 µM
same,TGI,[33],45.1 µM
same,TGI,[34],> 100 µM
same,TGI,[35],> 100 µM
same,TGI,[36],> 100 µM
same,TGI,[37],> 100 µM
same,TGI,[38],> 100 µM
same,TGI,[39],80.6 µM
same,TGI,[40],> 100 µM
same,TGI,[41],> 100000 nM
same,TGI,[42],> 100 µM
same,TGI,[43],> 100 µM
same,TGI,[44],> 100000 nM
same,TGI,[45],> 100 µM
same,TGI,[46],44.2 µM
same,TGI,[47],> 100 µM
same,TGI,[48],> 100000 nM
same,TGI,[49],> 100000 nM
same,TGI,[50],60.4 µM
same,TGI,[51],> 100 µM
same,TGI,[52],> 100 µM
same,TGI,[53],> 100 µM
same,TGI,[54],> 100 µM
same,TGI,[55],> 100 µM
same,TGI,[56],> 100 µM
CCN(CC)C(=S)N/N=C(\C)c1cccc(C)n1,TGI,[1],15.5 µM
same,TGI,[2],13.4 µM
same,TGI,[3],22.2 µM
same,TGI,[5],13.4 µM
same,TGI,[6],0.626 µM
same,TGI,[7],454 nM
same,TGI,[8],6.53 µM
same,TGI,[9],6.47 µM
same,TGI,[10],12.4 µM
same,TGI,[11],13.3 µM
same,TGI,[12],> 71.5 µM
same,TGI,[13],18 µM
same,TGI,[14],18.8 µM
same,TGI,[15],14.4 µM
same,TGI,[16],950 nM
same,TGI,[17],14.1 µM
same,TGI,[18],16.6 µM
same,TGI,[19],1780 nM
same,TGI,[20],17 µM
same,TGI,[57],1760 nM
same,TGI,[21],14.4 µM
same,TGI,[22],102 nM
same,TGI,[23],23.5 µM
same,TGI,[24],7.76 µM
same,TGI,[25],1340 nM
same,TGI,[26],13.5 µM
same,TGI,[27],4.63 µM
same,TGI,[28],12.7 µM
same,TGI,[29],572 nM
same,TGI,[30],> 100 µM
same,TGI,[31],11.4 µM
same,TGI,[32],5.7 µM
same,TGI,[33],1.46 µM
same,TGI,[34],4.24 µM
same,TGI,[35],13.7 µM
same,TGI,[36],12.7 µM
same,TGI,[37],17.2 µM
same,TGI,[38],12.7 µM
same,TGI,[39],> 100 µM
same,TGI,[40],4.49 µM
same,TGI,[41],1360 nM
same,TGI,[42],> 81.8 µM
same,TGI,[43],19.6 µM
same,TGI,[44],1920 nM
same,TGI,[45],16.9 µM
same,TGI,[46],12.1 µM
same,TGI,[48],1130 nM
same,TGI,[49],2550 nM
same,TGI,[50],7.4 µM
same,TGI,[51],11.3 µM
same,TGI,[52],18 µM
same,TGI,[53],23.4 µM
same,TGI,[54],5.83 µM
same,TGI,[55],17.5 µM
same,TGI,[56],4.96 µM
same,TGI,[58],9.6 µM
